Assay results as given in patent US20180201594A1, “Compound pac-1 or salt thereof and pharmaceutical composition comprising same” (priority 2015, published 2018).

Legend:
HUVEC = HUVEC tubule formation assay; type: cell-based
Method: Tubule formation assay: the matrigel was thawed at 4° C. overnight, which was 1:1 diluted with serum-free ECM medium and coated onto 96-well plates. The diluted matrigel was sucked by precooled pipette gun tip, which was added into pre-cooled 96-well plates, with 50 μL per well. The matrigel was placed on ice for 5 min to make the matrigel surface level, and then the 96-well plates were put into a cell incubator at 37° C. for 1 h to cause gel coagulation. Trypsinize cells, the cells were counted and diluted with ECM medium. The cell density was adjusted to […], and the cells were seeded into coated 96-well plates with 100 μL per well. According to the MTT results, the ZYS-1 solution at different concentrations were formulated. 100 μL of the solutions were taken and added into the cell-seeded wells to make the final concentration at 2, 1, 0.5 μM. At the same time, the positive control was set as recombinant human endostatin (Endostar) and the negative control as without drugs but medium only. Each concentration of the experimental groups and the control groups all were set three replicates, which were placed and cultured in the incubator. After culturing 18 h, the culture was observed under microscope and taken the pictures to record the circumference, area of the generated tubes and the number of nodes as indicators for the formation of tubule. […]

XIAP = XIAP protein expression in HGC-27 cells (immunofluorescence); type: cell-based; conditions: n = 6
Method: (§1) The sterilized cell transfer membrane was taken and placed into a 24-well plate, which was seeded with 1 mL (1×10^5 cells/mL) cell suspension, and cultured for 24 h. Drug-containing medium was added, The negative control groups and administration groups were set, with the experimental groups intervened for 24-48 h. The plate was washed with PBS, and fixed with 4% paraformaldehyde for 15 min. It was treated with 0.1% TritonX-100, and washed with PBS, blocked with 1:10 diluted normal serum blocking solution for 15 min. The plate was added 1:100 diluted primary antibody, placed at 4° C. overnight. The plate was washed with PBS, to which 1:100 diluted secondary antibodies was added and incubated at room temperature for 30 min. The plate was washed with PBS, to which 1:100 diluted SABC-FITC was added, and re-incubated at room temperature for additional 30 min. The unbound FITC was washed with PBS. We observed and taken pictures under fluorescence microscope, and analyzed the fluorescence intensity by Bioflux Montage software. 6 fields were selected randomly under microscope for each group and the integral optical density value of cells was calculated.

VEGF = VEGF protein expression in HGC-27 cells (immunofluorescence); type: cell-based; conditions: n = 6
Method: as §1

Caspase-3 = Caspase-3 protein expression in HGC-27 cells (immunofluorescence); type: cell-based; conditions: n = 6
Method: as §1

HT-1080 cells = experiment: Three-dimensional migration (Transwell assay), HT-1080; type: cell-based, human; conditions: for Cell number (transmembrane cells): 24 h, n = 9
Method: Starved cells were digested and collected, which were suspended in serum-free medium. The cell intensity was adjusted into 3×10^5 s cells/mL. 100 μL of the cell suspension was added into the upper chamber and 700 μL of medium with 10% serum to the lower chamber per well. According to the experimental design, 50 μL serum-free medium was added per well for the control group, 50 μL of drug-containing serum-free medium was added for the administration groups. They were continued to be cultured in the incubator for another 24 h. The upper chamber was taken, with methanol fixation for 30 min, dyed with Giemsa stain for 30 min, rinsed with clean water twice. The cells on the bottom membrane surface of the upper chamber were carefully wiped off with a wet cotton swab, dried in the air. With the bottom up, they were transferred onto glass slide and sealed with neutral gum. Under the microscope, nine random fields were taken and the transmembrane cells therein were counted. The average values were statistically calculated.

[1] = In vivo pharmacokinetic comparison in rats
Method: Twelve male Wistar rats were randomly divided into ZYS-1 group and PAC-1 group. These rats were fasted for 12 hours before administration, and fed water freely. After ZYS-1 and PAC-1 needle crystal were given at the dose of 60 mg/Kg, 0.5 mL orbital blood was collected at 0, 5, 20, 30, 45, 60, 120, 180, 240, 360, 480, 720 mins, centrifuged at 5000 r/min for 5 min. 200 μL plasma was taken. The plasma was added 3 mL acetone and vortexed for 1 min. After centrifuging at 15000 r/min for 5 min, the supernatant was collected and dried under nitrogen at 37° C., to which 200 μL acetonitrile was added to be reconstituted. After sonication for 10 min, the mixture was vortexed for 1 min, and filtered through 0.45 microporous filter membrane. The filtrate was tested by HPLC, and the plasma concentration at each time point was calculated.

HUVECs = experiment: HUVEC viability (MTT method); type: cell-based; conditions: Homo sapiens, 48 h
Method: Test Methods: The effect of ZYS-1 on the viability of HUVECs was determined by MTT method. The HUVECs in logarithmic growth phase were taken and digested with 0.25% trypsin, centrifuged and resuspended in ECM complete medium to formulate into […] single cell suspension. The cells were seeded in 96-well culture plates at a density of 1×10^4 cells/well, with a volume of 100 μL per well. They were placed and cultured in the incubator with 37®, 5% CO2. After culturing 24 h, […] different concentrations of ZYS-1 solution were added to obtain the final concentrations of drugs at 0.1, 0.5, 1, 5, 10, 50 and 100 μM. Meanwhile, the positive control group was set as etoposide at a final concentration of 10 μM, and the negative control was an equal amount of 0.1% DMSO solution. Each concentration of the experimental groups and the control groups all were set five replicates, with 100 μL of drugs per well. The blank control group is additionally set as 200 μL complete medium. The cells were placed and cultured in the incubator with 37 m, 5% CO2. After culturing for 48 h, 20 μL MTT solution (5 mg/mL) was added to each well, which was continued to be cultured for another 4 h. […] The light absorbance value of each well was measured by enzyme-linked immunosorbent assay. The measured wavelength was 570 nm and the result was recorded. […]

NF-κB = NF-κB protein expression in HGC-27 cells (immunofluorescence); type: cell-based; conditions: n = 6
Method: as §1

[2] = Homo sapiens, HT-1080, 24 h, read-out: Inhibition Rate
[3] = male Wistar rats, 60 mg/Kg, n = 6

With C=CCc1cccc(/C=N/NC(=O)CN2CCN(Cc3ccccc3)CC2)c1O [ZYS-1, 1-Piperazineacetic acid, 4-(phenylmethyl)-2-[[2-hydroxy-3-(2-propen-1-yl)phenyl]methylene]] the “inhibition of tubule formation compared with positive control 2.5 μg/mL Endostar” value (HUVEC; 2 μM ZYS-1 group) was “similar”, the “effect on formation of endothelial cell tubules induced in vitro” value (HUVEC; 2, 1, 0.5 μM, 18 h) was “strong inhibitory effect” and the “XIAP protein expression (integral optical density value)” value (XIAP; 4 μM) was 38.22 ± 0.81. The “XIAP protein expression (integral optical density value)” value (XIAP; 8 μM) was 36.27 ± 1.03, the “VEGF protein expression (integral optical density value)” value (VEGF; 4 μM) was 31.17 ± 0.24 and the “VEGF protein expression (integral optical density value)” value (VEGF; 8 μM) was 30.51 ± 0.32. The “Caspase-3 protein expression (integral optical density value)” value (Caspase-3; 4 μM) was 37.26 ± 0.39, the “Caspase-3 protein expression (integral optical density value)” value (Caspase-3; 8 μM) was 39.36 ± 1.20 and the “Cell number (transmembrane cells)” value (HT-1080 cells; 2 μM) was 24.67 ± 8.46. For the same molecule, the “Cell number (transmembrane cells)” value (HT-1080 cells; 4 μM) was 16.58 ± 4.18, the “Cell number (transmembrane cells)” value (HT-1080 cells; 8 μM) was 16.08 ± 5.07 and the inhibition at 2 µM (HT-1080 cells; [2]) was 33.5%. The inhibition at 4 µM (HT-1080 cells; [2]) was 55.3%, the inhibition at 8 µM (HT-1080 cells; [2]) was 56.6% and the “MRT(0-∞)” value [1, 3] was 420.4914 ± 271.8423 h. The T½ka [1, 3] was 22.9129 ± 6.3243 h, the T½α [1, 3] was 209.5239 ± 129.5666 h and the V/F [1, 3] was 0.0308 ± 0.0167 L. The ka [1, 3] was 0.0324 ± 0.0098 h⁻¹, the ke [1, 3] was 0.0048 ± 0.0033 h⁻¹ and the lagtime [1, 3] was 4.6861 ± 5.2184 h. The AUC(0-inf) ([1]; male, Wistar, rat, plasma, 60 mg/kg, n = 6) was 724 ± 207 µg·h/mL, the AUC ([1]; male, Wistar, rat, plasma, 60 mg/kg, n = 6, read-out: AUC(0-tn)) was 389 ± 136 µg·h/mL and the Cmax ([1]; male, Wistar, rat, plasma, 60 mg/kg, n = 6, read-out: Cmax) was 2190 ± 127 ng/mL. For the same molecule, the MRT ([1]; male, Wistar, rat, plasma, 60 mg/kg, n = 6, read-out: MRT(0-tn)) was 167 ± 51.5 h, the Tmax ([1]; male, Wistar, rat, plasma, 60 mg/kg, n = 6, read-out: Tmax) was 65 ± 9.44 h and the IC50 (HUVECs) was 2.54 µM. For the same molecule, the “NF-κB protein expression (integral optical density value)” value (NF-κB; 4 μM) was 43.83 ± 1.06 and the “NF-κB protein expression (integral optical density value)” value (NF-κB; 8 μM) was 40.94 ± 0.46.
